Experiments:
Assay type in all cases: in vivo
Digitaria ciliaris [1] = test: Test Example 8: herbicidal effect test by stem and leaf treatment in upland field (low dose); conditions: Digitaria ciliaris; 7.5 g per 10 ares; sprayed seven days after sowing, upland soil; 14 days after application; read-out: weed inhibition rate
Echinochloa crus-galli [2] = test: as above; conditions: Echinochloa crus-galli; 7.5 g per 10 ares; sprayed seven days after sowing, upland soil; 14 days after application; read-out: weed inhibition rate
[3] = tested on: Echinochloa crus-galli var. formosensis; test: Test Example 5: herbicidal effect test by soil application in paddy rice (low dose); conditions: Echinochloa crus-galli, soil, 336 h; 7.5 g per 10 ares; applied immediately after sowing, flooded pots; 14 days after application; read-out: weed inhibition rate
Procedure, shortened: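 7.5 g a.i./10 a applied by dropper into ~3 cm floodwater immediately post-sowing (seeds 0–1 cm, 30 per species; puddled fertilized paddy soil, glasshouse). Duplicates; day-14 inhibition %.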

Scirpus juncoides [4] = test: Test Example 2: herbicidal effect test by application during growth period of paddy rice; conditions: Schoenoplectiella juncoides; 120 g per 10 ares; applied seven days after sowing, flooded pots; 14 days after application; read-out: weed inhibition rate
Procedure, shortened: (§1)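 Greenhouse pots of flooded paddy soil, seeded shallowly with 30 seeds per weed, are treated on day 7 by dropper with diluted emulsifiable concentrate equal to 120 g a.i./10 a. Duplicate pots are scored for inhibition rate 14 days post-application.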

[5] = tested on: Echinochloa crus-galli var. formosensis; test: as above; conditions: Echinochloa crus-galli; 120 g per 10 ares; applied seven days after sowing, flooded pots; 14 days after application; read-out: weed inhibition rate
Procedure, shortened: as §1

Digitaria ciliaris [6] = test: Test Example 7: herbicidal effect test by soil application in upland field (low dose); conditions: Digitaria ciliaris, 7.5 g per 10 ares, sprayed one day after sowing, 14 days after application, read-out: weed inhibition rate
Procedure, shortened: (§2)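 Duplicate pots of alluvial loam, seeds incorporated in the surface 1 cm. Soil surface sprayed 1 d after sowing (EC in water, 100 L/10 a; 7.5 g a.i./10 a). Endpoint: % inhibition, day 14.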

Echinochloa crus-galli [7] = test: as above; conditions: Echinochloa crus-galli, 7.5 g per 10 ares, sprayed one day after sowing, 14 days after application, read-out: weed inhibition rate
Procedure, shortened: as §2

Echinochloa crus-galli [8] = test: Test Example 4: herbicidal effect test by stem and leaf treatment in upland field; conditions: Echinochloa crus-galli; 120 g per 10 ares; sprayed seven days after sowing, upland soil; 14 days after application; read-out: weed inhibition rate
Scirpus juncoides [9] = test: Test Example 1: herbicidal effect test by soil application in paddy rice; conditions: Schoenoplectiella juncoides, soil, 336 h; 120 g active ingredient per 10 ares; applied immediately after sowing, flooded pots; 14 days after application; read-out: weed inhibition rate
Procedure, shortened: (§3)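 Weeds sown 0–1 cm deep (30 seeds each) into fertilized, puddled paddy soil in Wagner pots. Pots are flooded immediately, water held near 3 cm, and the diluted emulsifiable concentrate is dripped in at once, delivering 120 g active ingredient per 10 ares under glass-greenhouse management.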

[10] = tested on: Echinochloa crus-galli var. formosensis; test: as above; conditions: Echinochloa crus-galli, soil, 336 h; 120 g active ingredient per 10 ares; applied immediately after sowing, flooded pots; 14 days after application; read-out: weed inhibition rate
Procedure, shortened: as §3

[11] = tested on: Echinochloa crus-galli var. formosensis; test: Test Example 6: herbicidal effect test by application during growth period of paddy rice (low dose); conditions: Echinochloa crus-galli; 7.5 g per 10 ares; applied seven days after sowing, flooded pots; 14 days after application; read-out: weed inhibition rate
Procedure, shortened: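 Paddy soil in flooded Wagner pots (about 3 cm water), weeds sown at 0–1 cm, 30 seeds each, grown in a glass greenhouse. Seven days after sowing, water-diluted emulsifiable concentrate was dropped into the water at 7.5 g active ingredient per 10 ares. Weed inhibition rate (%) was scored 14 days after application, in duplicate.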

Digitaria ciliaris [12] = test: Test Example 4: herbicidal effect test by stem and leaf treatment in upland field; conditions: Digitaria ciliaris; 120 g per 10 ares; sprayed seven days after sowing, upland soil; 14 days after application; read-out: weed inhibition rate
Digitaria ciliaris [13] = test: Test Example 3: herbicidal effect test by soil application in upland field; conditions: Digitaria ciliaris, 120 g per 10 ares, sprayed one day after sowing, 14 days after application, read-out: weed inhibition rate
Procedure, shortened: (§4)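 Pre-emergence test: seeds mixed into top 1 cm of alluvial loam upland soil in pots; emulsifiable concentrate diluted in water sprayed on soil one day after sowing at 100 L/10 a, 120 g a.i./10 a. Weed inhibition rate (%) scored at 14 days, in duplicate.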

Echinochloa crus-galli [14] = test: as above; conditions: Echinochloa crus-galli, 120 g per 10 ares, sprayed one day after sowing, 14 days after application, read-out: weed inhibition rate
Procedure, shortened: as §4

CC(C)C12CC(OCc3ccccc3C#N)C(C)(CC1Cl)O2 (stereo not shown) [1-1304, 2-[(5-chloro-1-methyl-4-isopropyl-7-oxabicyclo[2.2.1]heptan-2-yl)oxymethyl]benzonitrile]
≥ 80%: inhibition at 75 g/ha (Digitaria ciliaris [1]) | inhibition at 75 g/ha (Echinochloa crus-galli [2]) | inhibition at 75 g/ha [3] | inhibition at 1200 g/ha (Scirpus juncoides [4]) | inhibition at 1200 g/ha [5] | inhibition at 75 g/ha (Digitaria ciliaris [6]) | inhibition at 75 g/ha (Echinochloa crus-galli [7]) | inhibition at 1200 g/ha (Echinochloa crus-galli [8]) | pest or weed control at 1200 g/ha (Scirpus juncoides [9]) | pest or weed control at 1200 g/ha [10] | inhibition at 75 g/ha [11] | inhibition at 1200 g/ha (Digitaria ciliaris [12]) | inhibition at 1200 g/ha (Digitaria ciliaris [13]) | inhibition at 1200 g/ha (Echinochloa crus-galli [14])

CC(C)C12CC(OCc3c(F)cccc3F)C(C)(CC1Cl)O2 (stereo not shown) [1-1313, 5-chloro-2-[(2,6-difluorophenyl)methoxy]-1-methyl-4-isopropyl-7-oxabicyclo[2.2.1]heptane]
≥ 80%: inhibition at 75 g/ha (Digitaria ciliaris [1]) | inhibition at 75 g/ha (Echinochloa crus-galli [2]) | inhibition at 75 g/ha [3] | inhibition at 1200 g/ha (Scirpus juncoides [4]) | inhibition at 1200 g/ha [5] | inhibition at 75 g/ha (Digitaria ciliaris [6]) | inhibition at 75 g/ha (Echinochloa crus-galli [7]) | inhibition at 1200 g/ha (Echinochloa crus-galli [8]) | pest or weed control at 1200 g/ha (Scirpus juncoides [9]) | pest or weed control at 1200 g/ha [10] | inhibition at 75 g/ha [11] | inhibition at 1200 g/ha (Digitaria ciliaris [12]) | inhibition at 1200 g/ha (Digitaria ciliaris [13]) | inhibition at 1200 g/ha (Echinochloa crus-galli [14])

CC(C)C12CC(OCc3c(Cl)cccc3Cl)C(C)(CC1Cl)O2 (stereo not shown) [1-1314, 5-chloro-2-[(2,6-dichlorophenyl)methoxy]-1-methyl-4-isopropyl-7-oxabicyclo[2.2.1]heptane]
≥ 80%: inhibition at 75 g/ha (Digitaria ciliaris [1]) | inhibition at 75 g/ha (Echinochloa crus-galli [2]) | inhibition at 75 g/ha [3] | inhibition at 1200 g/ha (Scirpus juncoides [4]) | inhibition at 1200 g/ha [5] | inhibition at 75 g/ha (Digitaria ciliaris [6]) | inhibition at 75 g/ha (Echinochloa crus-galli [7]) | inhibition at 1200 g/ha (Echinochloa crus-galli [8]) | pest or weed control at 1200 g/ha (Scirpus juncoides [9]) | pest or weed control at 1200 g/ha [10] | inhibition at 75 g/ha [11] | inhibition at 1200 g/ha (Digitaria ciliaris [12]) | inhibition at 1200 g/ha (Digitaria ciliaris [13]) | inhibition at 1200 g/ha (Echinochloa crus-galli [14])

CC(C)C12CC(OCc3c(F)cccc3Cl)C(C)(CC1Cl)O2 (stereo not shown) [1-1315, 5-chloro-2-[(2-chloro-6-fluorophenyl)methoxy]-1-methyl-4-isopropyl-7-oxabicyclo[2.2.1]heptane]
≥ 80%: inhibition at 75 g/ha (Digitaria ciliaris [1]) | inhibition at 75 g/ha (Echinochloa crus-galli [2]) | inhibition at 75 g/ha [3] | inhibition at 1200 g/ha (Scirpus juncoides [4]) | inhibition at 1200 g/ha [5] | inhibition at 75 g/ha (Digitaria ciliaris [6]) | inhibition at 75 g/ha (Echinochloa crus-galli [7]) | inhibition at 1200 g/ha (Echinochloa crus-galli [8]) | pest or weed control at 1200 g/ha (Scirpus juncoides [9]) | pest or weed control at 1200 g/ha [10] | inhibition at 75 g/ha [11] | inhibition at 1200 g/ha (Digitaria ciliaris [12]) | inhibition at 1200 g/ha (Digitaria ciliaris [13]) | inhibition at 1200 g/ha (Echinochloa crus-galli [14])

CC(C)C12CC(OCc3ccccn3)C(C)(CC1Cl)O2 (stereo not shown) [1-1320, 2-[(5-chloro-4-isopropyl-1-methyl-7-oxabicyclo[2.2.1]heptan-2-yl)oxymethyl]pyridine]
≥ 80%: inhibition at 75 g/ha (Digitaria ciliaris [1]) | inhibition at 75 g/ha (Echinochloa crus-galli [2]) | inhibition at 75 g/ha [3] | inhibition at 1200 g/ha (Scirpus juncoides [4]) | inhibition at 1200 g/ha [5] | inhibition at 75 g/ha (Digitaria ciliaris [6]) | inhibition at 75 g/ha (Echinochloa crus-galli [7]) | inhibition at 1200 g/ha (Echinochloa crus-galli [8]) | pest or weed control at 1200 g/ha (Scirpus juncoides [9]) | pest or weed control at 1200 g/ha [10] | inhibition at 75 g/ha [11] | inhibition at 1200 g/ha (Digitaria ciliaris [12]) | inhibition at 1200 g/ha (Digitaria ciliaris [13]) | inhibition at 1200 g/ha (Echinochloa crus-galli [14])

CC(C)C12CC(OCc3cccs3)C(C)(CC1Cl)O2 (stereo not shown) [1-1323, 2-chloro-1-isopropyl-4-methyl-5-(2-thienylmethoxy)-7-oxabicyclo[2.2.1]heptane]
≥ 80%: inhibition at 75 g/ha (Digitaria ciliaris [1]) | inhibition at 75 g/ha (Echinochloa crus-galli [2]) | inhibition at 75 g/ha [3] | inhibition at 1200 g/ha (Scirpus juncoides [4]) | inhibition at 1200 g/ha [5] | inhibition at 75 g/ha (Digitaria ciliaris [6]) | inhibition at 75 g/ha (Echinochloa crus-galli [7]) | inhibition at 1200 g/ha (Echinochloa crus-galli [8]) | pest or weed control at 1200 g/ha (Scirpus juncoides [9]) | pest or weed control at 1200 g/ha [10] | inhibition at 75 g/ha [11] | inhibition at 1200 g/ha (Digitaria ciliaris [12]) | inhibition at 1200 g/ha (Digitaria ciliaris [13]) | inhibition at 1200 g/ha (Echinochloa crus-galli [14])

CC(C)C12CC(OCc3ccsc3)C(C)(CC1Cl)O2 (stereo not shown) [1-1324, 2-chloro-1-isopropyl-4-methyl-5-(3-thienylmethoxy)-7-oxabicyclo[2.2.1]heptane]
≥ 80%: inhibition at 75 g/ha (Digitaria ciliaris [1]) | inhibition at 75 g/ha (Echinochloa crus-galli [2]) | inhibition at 75 g/ha [3] | inhibition at 1200 g/ha (Scirpus juncoides [4]) | inhibition at 1200 g/ha [5] | inhibition at 75 g/ha (Digitaria ciliaris [6]) | inhibition at 75 g/ha (Echinochloa crus-galli [7]) | inhibition at 1200 g/ha (Echinochloa crus-galli [8]) | pest or weed control at 1200 g/ha (Scirpus juncoides [9]) | pest or weed control at 1200 g/ha [10] | inhibition at 75 g/ha [11] | inhibition at 1200 g/ha (Digitaria ciliaris [12]) | inhibition at 1200 g/ha (Digitaria ciliaris [13]) | inhibition at 1200 g/ha (Echinochloa crus-galli [14])

CC(C)=CCOC1CC2(C(C)C)OC1(C)CC2Br (stereo not shown) [1-1334, 5-bromo-1-methyl-2-(3-methylbut-2-enoxy)-4-isopropyl-7-oxabicyclo[2.2.1]heptane]
≥ 80%: inhibition at 75 g/ha (Digitaria ciliaris [1]) | inhibition at 75 g/ha (Echinochloa crus-galli [2]) | inhibition at 75 g/ha [3] | inhibition at 1200 g/ha (Scirpus juncoides [4]) | inhibition at 1200 g/ha [5] | inhibition at 75 g/ha (Digitaria ciliaris [6]) | inhibition at 75 g/ha (Echinochloa crus-galli [7]) | inhibition at 1200 g/ha (Echinochloa crus-galli [8]) | pest or weed control at 1200 g/ha (Scirpus juncoides [9]) | pest or weed control at 1200 g/ha [10] | inhibition at 75 g/ha [11] | inhibition at 1200 g/ha (Digitaria ciliaris [12]) | inhibition at 1200 g/ha (Digitaria ciliaris [13]) | inhibition at 1200 g/ha (Echinochloa crus-galli [14])
